Test system: adult CMs of OSKM transgenic mice
Test: doxycycline injection into OSKM transgenic mice, adult CMs isolated after two days
Assay type: in vivo
Details: two days after doxycycline treatment
Experimental: Reverse transcription were completed following the protocol of SuperScript III Reverse-Transcriptase kit (Life Technology). SYBR Green Real-Time PCR master mixes were used to quantify each gene expression, and GAPDH were performed for normalization.
Adult ventricular CMs were isolated from male mice on a Langendorff apparatus. The hearts were removed from the anaesthetized mice after heparinization for 10 mins, and then were cannulated for retrograde perfusion with Ca^2+-free Tyrode solution (NaCl 120.4 mmol/L, KCl 14.7 mmol/L, KH2PO4 0.6 mmol/L, Na2HPO4 0.6 mmol/L, MgSO4 1.2 mmol/L, HEPES 1.2 mmol/L, NaHCO3 4.6 mmol/L, Taurine 30 mmol/L, BDM 10 mmol/L, Glucose 5.5 mmol/L).
After 3-minutes of perfusion, the solution mixed with Ca^2+-free Tyrode solution supplemented with collagenase B (0.4 mg/g body weight, Roche), collagenase D (0.3 mg/g body weight, Roche) and protease type XIV (0.05 mg/g body weight, Sigma-Aldrich) were used to digest the hearts. After digestion, the ventricles were cut from the cannula and teased into small pieces in the digestion solution neutralized by the Ca^2+-free Tyrode solution containing 10% FBS. Adult CMs were dissociated from the digested tissues by gentle pipetting and collected after removing the un-digested tissues by filtering through a nylon mesh of 250 μm pore size. […]

SMILES: C[C@H]1c2cccc(O)c2C(=O)C2=C(O)[C@]3(O)C(=O)C(C(N)=O)=C(O)[C@@H](N(C)C)[C@@H]3[C@@H](O)[C@@H]21 [doxycycline]
- H3P+ population of adult CMs relative to control: 2 ×
